From patent US20260108513A1 (Pfizer Inc., priority 2022, published 2026)

Test system: mCRPC patients
Test: TALAPRO-2 Part 2: safety, adverse events and supportive care (safety population)
Type: in vivo, human
Settings: talazoparib+enzalutamide group
From the text: This population was the primary population for evaluating safety.
Treatment-emergent is defined as the time between the first dose of study treatment to 28 days after the last dose of the last study treatment, or before any new antineoplastic therapy, whichever occurs first.

Cn1ncnc1[C@H]1c2n[nH]c(=O)c3cc(F)cc(c23)N[C@@H]1c1ccc(F)cc1 [talazoparib, (8S,9R)-5-fluoro-8-(4-fluorophenyl)-9-(1-methyl-1H-1,2,4-triazol-5-yl)-8,9-dihydro-2H-pyrido[4,3,2-de]phthalazin-3(7H)-one]
median time to onset of first G≥3 anemia: 3.3 months | recurrent G3-4 anemia: 20.6%
